By pIC50 is commonly meant the negative decadic logarithm of the IC50, by convention in mol/L. A higher pIC50 goes with a low IC50.

Structures are written as SMILES. pIC50: −log10 of the molar value. Where only a bound is given, the exact number is not on record here.

T1 sequence (Q9H244 whole entry): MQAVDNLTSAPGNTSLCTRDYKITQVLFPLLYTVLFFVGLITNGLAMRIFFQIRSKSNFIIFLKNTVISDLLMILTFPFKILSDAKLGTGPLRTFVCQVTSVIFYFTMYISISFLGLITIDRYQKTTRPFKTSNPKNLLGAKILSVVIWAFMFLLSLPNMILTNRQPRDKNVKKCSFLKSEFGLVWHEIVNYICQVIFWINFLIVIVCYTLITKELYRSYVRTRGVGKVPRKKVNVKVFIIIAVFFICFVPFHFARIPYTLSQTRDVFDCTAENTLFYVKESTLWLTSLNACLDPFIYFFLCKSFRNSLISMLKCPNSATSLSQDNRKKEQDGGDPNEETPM

The test addresses T1, P2Y12 receptor (Homo sapiens, UniProt Q9H244).
T1 construct: endogenous in cells; host or cells: human platelets (outdated from blood banks or fresh), apyrase-washed, whole
As to the kind of experiment: platelet ADP receptor binding assay (ARB): inhibition of [3H]2-MeS-ADP binding to platelets. The settings on record: [3H]2-MeS-ADP binding to apyrase-washed human platelets. On the procedure: 1. The Ability of Candidate Molecules to Inhibit the Binding of [^3H]2-MeS-ADP to the […] Receptor on Platelets was Determined Using a Radioligand Binding Assay.
Utilizing this assay the potency of inhibition of such compounds with respect to [^3H]2-MeS-ADP binding to whole platelets is determined. Under the conditions described in II (3) below, the binding of [^3H]2-MeS-ADP is solely due to the interaction of this ligand with the P2Y12 receptor, in that all the specific binding measured in this assay is competable with a P2Y12 antagonist (i.e., the specific binding is reduced to background levels by competition with an excess of P2Y12 antagonist, with no competition of binding when a P2Y1 antagonist is pre-incubated with the platelet preparation). [^3H]2-MeS-ADP binding experiments are routinely performed with outdated human platelets collected by standard procedures at hospital blood banks. Apyrase-washed outdated platelets are prepared as follows (all steps at room temperature, if not indicated otherwise):
Outdated platelet suspensions are diluted with 1 volume of CGS and platelets pelleted by centrifugation at 1900×g for 45 minutes. Platelet pellets are resuspended at 3-6×10^9 platelets/ml in CGS containing 1 U/ml apyrase (grade V, Sigma, St. Louis, Mo.) and incubated for 15 minutes at 37° C. After centrifugation at 730×g for 20 minutes, pellets are resuspended in Hepes-Tyrode's buffer containing 0.1% BSA (Sigma, St. Louis, Mo.) at a concentration of 6.66×10^8 platelets/ml. Binding experiments are performed after >45 minutes resting of the platelets.
Alternatively, binding experiments are performed with fresh human platelets prepared as described in section I (Inhibition of ADP-Mediated Platelet Aggregation in vitro), except that platelets are resuspended in Hepes-Tyrode's buffer containing 0.1% BSA (Sigma, St. Louis, Mo.) at a concentration of 6.66×10^8 platelets/mil. Very similar results are obtained with fresh and outdated platelets.
A platelet ADP receptor binding assay (ARB) using the tritiated potent agonist ligand [^3H]2-MeS-ADP (Jantzen, H. M. et al. (1999) Thromb. Hemost. 81:111-117) has been adapted to the 96-well microtiter format. In an assay volume of 0.2 ml Hepes-Tyrode's buffer with 0.1% BSA and 0.6% DMSO, 1×10^8 apyrase-washed platelets are preincubated in 96-well flat bottom microtiter plates for 5 minutes with serial dilutions of test compounds before addition of 1 nM [^3H]2-MeS-ADP ([^3H]2-methylthioadenosine-5′-diphosphate, ammonium salt; specific activity 20-50 Ci/mmole, obtained by custom synthesis from Amersham Life Science, Inc., Arlington Heights, Ill., or NEN Life Science Products, Boston, Mass.). Total binding is determined in the absence of test compounds. Samples for nonspecific binding may contain 10 μM unlabelled 2-MeS-ADP (RBI, Natick, Mass.). After incubation for 15 minutes at room temperature, unbound radioligand is separated by rapid filtration and two washes with cold (4-8° C.) Binding Wash Buffer (10 mM Hepes pH 7.4, 138 mM NaCl) using a 96-well cell harvester (Minidisc 96, Skatron Instruments, Sterling, Va.) and 8×12 GF/C glassfiber filtermats (Printed Filtermat A, for 1450 Microbeta, Wallac Inc., Gaithersburg, Md.). The platelet-bound radioactivity on the filtermats is determined in a scintillation counter (Microbeta 1450, Wallac Inc., Gaithersburg, Md.). Specific binding is determined by subtraction of non-specific binding from total binding, and specific binding in the presence of test compounds is expressed as % of specific binding in the absence of test compound dilutions. IC50s were derived by non-linear regression analysis.
In the case of `CNc1cc2c(cc1F)C(=O)N(c1ccc(C(=O)NC(c3ccc(Cl)s3)c3nc(C)cs3)cc1)CO2` (stereo not shown) [Compound 85, N-((5-chlorothiophen-2-yl)(4-methylthiazol-2-yl)methyl)-4-(6-fluoro-7-(methylamino)-4-oxo-2H-benzo[e][1,3]oxazin-3(4H)-yl)benzamide], the pIC50 is 6.30 to 7.30. Under `CNc1cc2[nH]c(=O)n(-c3cccc(C(=O)NC(C(=O)O)c4ccc(Cl)s4)c3)c(=O)c2cc1F` (stereo not shown) [Compound 111, 2-(5-chlorothiophen-2-yl)-2-(3-(6-fluoro-7-(methylamino)-2,4-dioxo-1,2-dihydroquinazolin-3(4H)-yl)benzamido)acetic acid] stands less than 6.30; under `COC(=O)C(NC(=O)c1ccc(N2COc3ccc(C)cc3C2=O)cc1)c1ccc(Cl)s1` (stereo not shown) [Compound 76, methyl 2-(5-chlorothiophen-2-yl)-2-(4-(6-methyl-4-oxo-2H-benzo[e][1,3]oxazin-3(4H)-yl)benzamido)acetate], less than 6.30; under `O=C(NCc1ccc(Cl)s1)Nc1ccc(-n2c(=O)[nH]c3cc(NCc4ccc(F)cc4)ccc3c2=O)cc1` [Compound 107, 1-((5-chlorothiophen-2-yl)methyl)-3-(4-(7-(4-fluorobenzylamino)-2,4-dioxo-1,2-dihydroquinazolin-3(4H)-yl)phenyl)urea], greater than 7.30.

In the case of `CNc1cc2[nH]c(=O)n(-c3ccc(C(=O)NC(C(=O)O)c4cccc(Cl)c4)cc3)c(=O)c2cc1F` (stereo not shown) [Compound 15, 2-(3-chlorophenyl)-2-(4-(6-fluoro-7-(methylamino)-2,4-dioxo-1,2-dihydroquinazolin-3(4H)-yl)benzamido)acetic acid], the pIC50 was 6.30 to 7.30.

`CNc1cc2c(cc1F)C(=O)N(c1ccc(C(=O)N[C@@H](c3nnn[nH]3)c3ccc(Cl)s3)cc1)CO2` [Compound 87, N-((5-chlorothiophen-2-yl)(1H-tetrazol-5-yl)methyl)-4-(6-fluoro-7-(methylamino)-4-oxo-2H-benzo[e][1,3]oxazin-3(4H)-yl)benzamide]: the pIC50 was greater than 7.30.

As for `CNc1cc2c(cc1F)C(=O)N(c1ccc(C(=O)NC(C(=O)O)c3ccccc3)cc1)CO2` (stereo not shown) [Compound 58, 2-(4-(6-fluoro-7-(methylamino)-4-oxo-2H-benzo[e][1,3]oxazin-3(4H)-yl)benzamido)-2-phenylacetic acid], the pIC50 was 6.30 to 7.30. For the compound `CNc1cc2c(cc1F)C(=O)N(c1ccc(CC(=O)NC(C(=O)N(C)C)c3ccc(Cl)s3)cc1)CO2` (stereo not shown) [Compound 120, 2-(5-chlorothiophen-2-yl)-2-(2-(4-(6-fluoro-7-(methylamino)-4-oxo-2H-benzo[e][1,3]oxazin-3(4H)-yl)phenyl)acetamido)-N,N-dimethylacetamide], the pIC50 was less than 6.30. Consider `O=C(Nc1ccc(-n2c(=O)[nH]c3cc(NCc4ccc(F)cc4)ccc3c2=O)cc1)NC(Cc1cccs1)C(=O)O` (stereo not shown) [Compound 109, 2-(3-(4-(7-(4-fluorobenzylamino)-2,4-dioxo-1,2-dihydroquinazolin-3(4H)-yl)phenyl)ureido)-3-(thiophen-2-yl)propanoic acid], for which the pIC50 was 6.30 to 7.30. For `CNc1cc2c(cc1F)C(=O)N(c1ccc(CC(=O)NC(C(=O)O)c3ccc(Cl)s3)cc1)CO2` (stereo not shown) [Compound 114, 2-(5-chlorothiophen-2-yl)-2-(2-(4-(6-fluoro-7-(methylamino)-4-oxo-2H-benzo[e][1,3]oxazin-3(4H)-yl)phenyl)acetamido)acetic acid] the value was less than 6.30. Under `CNc1cc2ncn(-c3ccc(C(=O)NC(C(=O)O)c4ccc(Cl)s4)cc3)c(=O)c2cc1F` (stereo not shown) [Compound 116, 2-(5-chlorothiophen-2-yl)-2-(4-(6-fluoro-7-(methylamino)-4-oxoquinazolin-3(4H)-yl)benzamido)acetic acid] stands 6.30 to 7.30; under `CNc1cc2c(cc1F)C(=O)N(c1ccc(C(=O)N[C@H](c3nnn[nH]3)c3ccc(Cl)s3)cc1)CO2` [Compound 89, (R)-N-((5-chlorothiophen-2-yl)(1H-tetrazol-5-yl)methyl)-4-(6-fluoro-7-(methylamino)-4-oxo-2H-benzo[e][1,3]oxazin-3(4H)-yl)benzamide], greater than 7.30; under `CC(C)Oc1ccc2[nH]c(=O)n(-c3ccc(C(=O)NC(C(=O)O)c4ccc(Cl)s4)cc3)c(=O)c2c1` (stereo not shown) [Compound 38, 2-(5-chlorothiophen-2-yl)-2-(4-(6-isopropoxy-2,4-dioxo-1,2-dihydroquinazolin-3(4H)-yl)benzamido)acetic acid], less than 6.30. Under `O=C(NC(Cc1cccs1)C(=O)O)c1ccc(-n2c(=O)[nH]c3cc(NCc4ccc(F)cc4)ccc3c2=O)cc1` (stereo not shown) [Compound 3, 2-(4-(7-(4-fluorobenzylamino)-2,4-dioxo-1,2-dihydroquinazolin-3(4H)-yl)benzamido)-3-(thiophen-2-yl)propanoic acid] stands 6.30 to 7.30; under `CNc1cc2[nH]c(=O)n(-c3ccc(CN(CC(=O)O)C(=O)c4ccc(Cl)s4)cc3)c(=O)c2cc1F` [Compound 103, 2-(5-chloro-N-(4-(6-fluoro-7-(methylamino)-2,4-dioxo-1,2-dihydroquinazolin-3(4H)-yl)benzyl)thiophene-2-carboxamido)acetic acid], less than 6.30. In turn, `CNc1cc2[nH]c(=O)n(-c3ccc(C(=O)NC(c4nnn[nH]4)c4ccccc4Cl)cc3)c(=O)c2cc1F` (stereo not shown) [Compound 28, N-((2-chlorophenyl)(1H-tetrazol-5-yl)methyl)-4-(6-fluoro-7-(methylamino)-2,4-dioxo-1,2-dihydroquinazolin-3(4H)-yl)benzamide] gave a pIC50 of less than 6.30. Under `CNc1cc2[nH]c(=O)n(-c3ccc(C(=O)NC(C(=O)O)c4ccc(Cl)s4)s3)c(=O)c2cc1F` (stereo not shown) [Compound 112, 2-(5-chlorothiophen-2-yl)-2-(5-(6-fluoro-7-(methylamino)-2,4-dioxo-1,2-dihydroquinazolin-3(4H)-yl)thiophene-2-carboxamido)acetic acid] stands 6.30 to 7.30; under `CNc1cc2[nH]c(=O)n(-c3ccc(C(=O)NC(C(=O)O)c4ccc(Cl)cc4)cc3)c(=O)c2cc1F` (stereo not shown) [Compound 14, 2-(4-chlorophenyl)-2-(4-(6-fluoro-7-(methylamino)-2,4-dioxo-1,2-dihydroquinazolin-3(4H)-yl)benzamido)acetic acid], less than 6.30; under `CNc1cc2[nH]c(=O)n(-c3ccc(C(=O)NC(c4ccc(Cl)cc4)c4nnn[nH]4)cc3)c(=O)c2cc1F` (stereo not shown) [Compound 12, N-((4-chlorophenyl)(1H-tetrazol-5-yl)methyl)-4-(6-fluoro-7-(methylamino)-2,4-dioxo-1,2-dihydroquinazolin-3(4H)-yl)benzamide], less than 6.30. Under `O=C(Nc1ccc(-n2c(=O)[nH]c3cc(NCc4ccc(F)cc4)ccc3c2=O)cc1)NC(C(=O)O)c1cccs1` (stereo not shown) [Compound 108, 2-(3-(4-(7-(4-fluorobenzylamino)-2,4-dioxo-1,2-dihydroquinazolin-3(4H)-yl)phenyl)ureido)-2-(thiophen-2-yl)acetic acid] stands 6.30 to 7.30. Under `CNc1cc2c(cc1F)C(=O)N(c1ccc(CC(=O)NC(C(=O)N3CCCC3)c3ccc(Cl)s3)cc1)CO2` (stereo not shown) [Compound 121, N-(1-(5-chlorothiophen-2-yl)-2-oxo-2-(pyrrolidin-1-yl)ethyl)-2-(4-(6-fluoro-7-(methylamino)-4-oxo-2H-benzo[e][1,3]oxazin-3(4H)-yl)phenyl)acetamide] stands less than 6.30; under `O=C(NC(C(=O)O)c1ccc(Cl)s1)c1ccc(-n2c(=O)[nH]c3ccccc3c2=O)cc1` (stereo not shown) [Compound 33, 2-(5-chlorothiophen-2-yl)-2-(4-(2,4-dioxo-1,2-dihydroquinazolin-3(4H)-yl)benzamido)acetic acid], less than 6.30.

Source of the values: patent US7834023B2 (Portola Pharmaceuticals, Inc., priority 2006, dated 2010).
